These results are taken from patent publication US7022875B2, “Thiobutacin and antifungal and antioomycete composition for controlling plant diseases using the same” (Korea University Industry and Academy Cooperation Foundation, priority 2003, dated 2006).

The subject of assay [1] is Phytophthora capsici infection on pepper plants. The assay can be described thus: Control efficacy against Phytophthora blight on pepper plants in a growth room. Format: in vivo. As for the experimental part: The commercial fungicide metalaxyl was used to compare the antifungal activity with thiobutacin against Phytophthora capsici infection on pepper plants in a growth room. Before the pepper plant was inoculated with Phytophthora capsici infection, disease severity was determined both for each treated with various concentrations of thiobutacin and metalaxyl and for the untreated control. Disease severity on pepper plants was rated daily after inoculation based on a scale 0-5: 0=no visible disease symptoms; 1=leaves slightly wilted with brownish lesions beginning to appear on stems; 2=30-50% of entire plant diseased; 3=50-70% of entire plant diseased; 4=70-90% of entire plant diseased; and 5=plant dead.

In assay [2] the test system is Xanthomonas campestris pv. Vesicatoria. Nature of the assay: microbe, parasite or virus in culture. The following applies: 96 h, 28° C., 4 days. It is filed as cell-based.
Assay [3] has as its system Erwinia carotovora subsp. carotovora. Nature of the assay: microbe, parasite or virus in culture. Particulars: Pectobacterium carotovorum, 96 h; 28° C., 4 days. It is filed as cell-based.
The subject of assay [4] is Cladosporium cucumerinum. The assay can be described thus: MIC in microtiter plates. Format: cell-based. The following applies: 96 h, 28° C., 4 days, complete inhibition of growth.
Assay [5] relates to Colletotrichum orbiculare. Nature of the assay: MIC in microtiter plates. Format: cell-based.
Assay [6] deals with Rhizoctonia solani. The assay can be described thus: MIC in microtiter plates. It is filed as cell-based.
Assay [7] deals with Phytophthora capsici. Nature of the assay: microbe, parasite or virus in culture. The following applies: 96 h, 28° C., 4 days. Format: cell-based.
For assay [8], the system named is Saccharomyces cerevisiae. The assay can be described thus: microbe, parasite or virus in culture. Format: cell-based. Particulars: 96 h, 28° C., 4 days.
Assay [9] deals with Candida albicans. The assay can be described thus: microbe, parasite or virus in culture. Format: cell-based. Particulars: 96 h, 28° C., 4 days.
Assay [10] deals with Bacillus subtilis. The assay can be described thus: microbe, parasite or virus in culture. It is filed as cell-based. Particulars: 96 h, 28° C., 4 days.
In assay [11] the test system is Ralstonia solanacearum. The assay can be described thus: microbe, parasite or virus in culture. Particulars: 96 h. It is filed as cell-based.
For assay [12], the system named is Alternaria mali. The assay can be described thus: MIC in microtiter plates. Format: cell-based.
The test system of assay [13] is Fusarium oxysporum f.sp. cucumerinum. Nature of the assay: MIC in microtiter plates. Format: cell-based.
Assay [14] has as its system Botrytis cinerea. The assay can be described thus: MIC in microtiter plates. Particulars: 96 h, 28° C., 4 days, complete inhibition of growth. It is filed as cell-based.
In assay [15] the test system is Magnaporthe grisea. Nature of the assay: microbe, parasite or virus in culture. It is filed as cell-based.
The mark [16] stands for this setting: from 4 days after inoculation, treated plants.
[17] abbreviates: from 5 days after inoculation, 10 μg/ml.
The mark [18] stands for this setting: 96 h, 28° C., 4 days, complete inhibition of growth.

SMILES strings stand for the structures. In brackets after ≈: the same amount, converted by molar mass. A value given as a limit tells only on which side of the number the result lay.

Consider `COCC(=O)N(c1c(C)cccc1C)C(C)C(=O)OC` (stereo not drawn) [metalaxyl, reference compound], for which the “disease symptoms on pepper plants” value in assay [1] (setting [16]) is reported as “did not exhibit any symptoms”; in [1] (setting [17]), “slight disease symptoms”; in assay [1] (from 5 days after inoculation, 50 μg/ml), “exhibited the disease development in the leaves”; in [1] (higher concentrations than 100 μg/ml) it was “did not show any phytophthora development”.
Turning to `CSC(CC(=O)c1ccccc1N)C(=O)O` (stereo not drawn) [thiobutacin, 4-(2-aminophenyl)-4-oxo-2-methylthio-butanoic acid], the MIC is over 100 µg/mL in assay [2]; over 100 µg/mL in assay [3]; 50 µg/mL (≈ 209 µM) in assay [4]; over 100 µg/mL in assay [5] (setting [18]); over 100 µg/mL in assay [6] (setting [18]); 10 µg/mL (≈ 41.8 µM) in assay [7]. Besides, the MIC was 30 µg/mL (≈ 125 µM) in [8]; over 100 µg/mL in assay [9]; over 100 µg/mL in assay [10]; over 100 µg/mL in assay [11]; over 100 µg/mL in assay [12] (setting [18]); over 100 µg/mL in assay [13] (96 h, Fusarium oxysporum f.sp. cucumerinum, 28° C., 4 days, complete inhibition of growth). Besides, the MIC was 50 µg/mL (≈ 209 µM) in [14] and over 100 µg/mL in [15] (Pyricularia oryzae, 96 h). For the same compound, the “disease symptoms on pepper plants” value was “slight damages” in assay [1] (after 10 days, 100 μg/ml); “did not show any phytophthora infection” in assay [1] (after 10 days, 500 μg/ml); “did not exhibit any symptoms” in assay [1] (setting [16]); “exhibited the disease development in the leaves” in [1] (setting [17]). Also, the “growth inhibition (in words)” value in assay [5], in [6], in assay [12], in assay [13] (Fusarium oxysporum f. sp. cucumerinum) and in assay [15] (Magnaporthe grisea) was “not inhibited” throughout.
